Measured values: patent US20140343165A1, “PLANT PROTECTION AGENT” (priority 2010, published 2014)

Assays:
[1] = tested on: Erwinia amylovora; assay: In vitro infection tests on apple blossoms; settings: for Infested blossoms: 14 blossoms
Procedure: In these tests, streptomycin was used as a positive control.
The in vitro tests on apple blossoms represented the natural course of infection and were conducted as follows: blooming apple blossoms were cut and further cultivated standing in a sterile sugar solution in transparent plastic containers. […] Following another 35 hours of incubation, the blossoms were wet by spraying on water. The infection rate was determined after 8 to 10 days of incubation at 22° C. and 70% relative humidity.

[2] = tested on: Erwinia amylovora; assay: Inoculation tests on pear fruits; assay type: in vivo
Source text: As opposed to the blossom system, this test has to be performed with lesions of the plant tissue. It is known that any results obtained with this system have a lower reproducibility and are harder to evaluate. The corresponding results are photographically documented in FIG. 3. Two different pear varieties were used.
The development of black necrotic lesions of the plant tissue and the formation of white bacterial slime (exsudate) were taken as criteria for evaluating the degree of infection.
Erwinia amylovora was inoculated into 5 ml KB medium and cultivated over night at 28° C. and 200 rpm. Upon reaching a cell density corresponding to OD600 (1:10 dilution)=0.17 to 0.20, 1 ml of the undiluted culture was centrifuged and the bacterial pellet was resuspended in PBS (phosphate buffered saline). Unripe pear fruits (July) obtained from the experimental plantation (Jedlersdorf, BOKU) were harvested, washed with water, dried and used for inoculation (EPPO protocol 2004). In the inoculation procedure, two holes each having a volume of about 10 μl were pierced into each fruit using a pipette tip. 10 μl of the test solution were pipetted into each of the hollows thus formed, followed by incubation of the fruits for 15 min. Upon absorption of the test solutions by the tissue, each lesion was inoculated with 10 μl of Erwinia amylovora, suspended in PBS. The direct inoculation of fruits that had not been treated with the agent before served as a positive control. In the negative control, sterile water was used instead of the agent solution. A 0.01 mM streptomycin solution was used as a positive control. The inoculated fruits were incubated for 3 to 7 days at 25° C. and 100% relative humidity.

[3] = tested on: Erwinia amylovora; assay: Growth inhibition in in vitro suspension cultures (OD600 growth curves); assay type: cell-based; settings: for Effect on growth of suspension culture: Example 2
Procedure: Streptomycin as a conventional agent against Erwinia amylovora was used as a positive control (see FIGS. 1A to 1D).
The specific members of the three different classes of quinones were uniformly pre-dissolved in ethanol to give a 1 mM solution and subsequently diluted to the respective final concentrations in culture medium. Corresponding controls were conducted with equal volumes of ethanol in the absence of agent (FIG. 4, “KE”). Attention was particularly focused on a low concentration rage of less than 100 μM, in which unspecific and weak antibacterial effects are no longer of significance.
In the present experiments, the Austrian Erwinia amylovora standard strain 295/93 (AGES) was employed.
(§1) Erwinia amylovora was inoculated into 5 ml of KB medium and cultivated over night at 28° C. and 200 rpm. This culture was diluted with KB medium to OD600=0.3 and 2 ml thereof were further cultivated in sealed cuvettes in the presence of different agent concentrations immediately afterwards. […] Two controls were conducted: unchanged medium and medium with an ethanol concentration equal to that of the test preparations. The optical densities of the cultures OD600 were measured over time at predetermined intervals.

[4] = tested on: Erwinia amylovora; assay: Bacteriostatic versus bactericidal effect: plating aliquots of suspension cultures onto agent-free solid medium; assay type: cell-based; settings: for Colony formation of surviving cells after plating: already after 30 min
Procedure: This may be determined by means of plating aliquots of the suspension cultures containing the agent onto agent-free solid media. […] A culture blended with a corresponding volume of the solvent for juglone (ethanol) served as a control. […]. […] Aliquots of the suspension culture having an equivalent ethanol concentration were withdrawn and plated to serve as a control. After two days of incubating the plates at 25° C., the respective colony formation was documented.

[5] = tested on: Erwinia carotovora; assay: Growth inhibition in suspension culture; assay type: cell-based
Procedure: Various other species of Erwinia are also important phytopathogens. The bacterium Erwinia carotovora was selected as an example of a further Erwinia species.
as §1

[6] = tested on: apple blossoms (Smoothy and Idared); assay: Phytotoxicity on apple blossoms and subsequent fruit development; assay type: in vivo, Malus x domestica; settings: for Browning reaction on petals: Smoothy and Idared; for Fruit russeting: all tested concentrations
Procedure: (§2) . In this test, the respective concentrations were employed that had been proven as completely effective (no bacterial growth) in the in vitro suspension cultures. […]. […] The maximum final concentrations of the solvent ethanol in the treatment solutions were 5%; corresponding control treatments were conducted with 0.5 or 5% ethanol in water. For each variant (agent, concentration, variety), two of the larger branches were treated. The test were conducted in the experimental fruit plantation of the University of Agriculture in Jedlersdorf, Austria. The trees of each series were of identical age as well as developmental and observable physiological state. The treatments were conducted in the morning between 8:00 and 9:30 at a relative humidity of 68 to 75% and temperatures of 12 to 13° C. On all days of treatment, the sprayed blossoms were directly exposed to sunlight afterwards. Phytotoxic effects were evaluated on the days following treatment. During the following months, fruit set and development was observed and compared to that of the control plants. In the evaluation, attention was particularly focused on visible alterations of the fruit epidermis.

[7] = tested on: pear blossoms (Williams Christ); assay: Phytotoxicity on pear blossoms and subsequent fruit development; assay type: in vivo, Pyrus communis; settings: for Browning reaction on petals: Williams Christ; for Fruit russeting: all tested concentrations
Procedure: as §2

[8] = tested on: bees; settings: on contact or by ingestion
[9] = concentration not given, curative

## [H]/N=C(/N)N[C@H]1[C@H](O)[C@@H](O)[C@H](O[C@@H]2O[C@@H](C)[C@](O)(C=O)[C@H]2O[C@@H]2O[C@@H](CO)[C@H](O)[C@@H](O)[C@@H]2NC)[C@@H](N/C(N)=N\[H])[C@@H]1O [Streptomycin, streptomycin]
[1]; concentration not given, agent applied 2.5 h after Erwinia amylovora (curative)
  Infested blossoms: 3
[1]; [9]
  Degree of efficacy (%): 75%
  Infestation (%): 21%
[1]; in vivo
  phyotoxic: no
[2]; 0.01 mM
  Exsudate formation: no exsudate formation
[2]; 0.01 mM, Williams Christ and Bosc's Bottle Pear, versus inoculation without agent
  Necrotic lesions: slightly diminished

## O=C1C=CC(=O)c2c(O)cccc21 [Juglone]
[3]; 5 μM
  Effect on growth of suspension culture: growth occurs after a prolonged incubation period
[3]; 10 μM (1.74 mg/1)
  Effect on growth of suspension culture: completely bactericidal effect
[3]; 50 μM, 5% ethanol in medium
  Effect on growth of suspension culture: distinct effect
[3]; suspension culture
  Concentrations proven completely effective (no bacterial growth) in the in vitro suspension cultures: 0.005 to 0.05 mM
[3]; suspension culture, compared with streptomycin
  Activity against Erwinia amylovora (growth inhibition): activity corresponding to that of streptomycin in a sub-millimolar concentration range
[4]; 0.01 mM in suspension culture
  Colony formation of surviving cells after plating: no colony formation of surviving cells after each prolonged incubation time
[4]; 0.1 mM in suspension culture
  Colony formation of surviving cells after plating: no colony formation of surviving cells after each prolonged incubation time
[4]; conclusion of plating tests
  Bactericidal effect: strong bactericidal effect
[5]; 0.1 mM
  Growth in suspension culture: completely inhibited
[5]; concentrations lower than 0.1 mM
  Growth in suspension culture: not by lower concentrations
[1]; 0.005 mM, curative
  Degree of efficacy (%): 58%
  Infestation (%): 36%
  Infested blossoms: 5
[1]; 0.01 mM, curative
  Degree of efficacy (%): 67%
  Infestation (%): 29%
  Infested blossoms: 4
[2]; 0.1 mM, pre-incubation 15 min before inoculation
  Effect on infection of pear fruits: effect approximately comparable to that of 0.01 mM streptomycin
[6]; 0.025 mM
  Browning reaction on petals: slightly brown spots
[6]; 0.05 mM
  Browning reaction on petals: more distinct spots
[6]
  Fruit russeting: Neither the juglone nor the plumbagin treatments resulted in observable fruit russeting
[7]; tested 0.005/0.01 mM
  Browning reaction on petals: No effect
[7]
  Fruit russeting: Neither the juglone nor the plumbagin treatments resulted in observable fruit russeting
[8]
  Toxicity to bees: non-toxic to bees on contact or by ingestion

## CC1=CC(=O)c2c(O)cccc2C1=O [Plumbagin, 5-hydroxy-2-methyl-1,4-naphthoquinone]
[3]; suspension culture
  Concentrations proven completely effective (no bacterial growth) in the in vitro suspension cultures: 0.1 to 0.5 mM
[1]; 0.1 mM, curative
  Degree of efficacy (%): 58%
  Infestation (%): 36%
  Infested blossoms: 5
[1]; 0.5 mM, curative
  Degree of efficacy (%): 50%
  Infestation (%): 43%
  Infested blossoms: 6
[6]; 0.1 mM
  Browning reaction on petals: brown spots
[6]; 0.5 mM, compared with 0.1 mM
  Browning reaction on petals: more distinct
[6]
  Fruit russeting: Neither the juglone nor the plumbagin treatments resulted in observable fruit russeting
[7]; 0.1 mM
  Browning reaction on petals: brown spots
[7]; 0.5 mM, compared with 0.1 mM
  Browning reaction on petals: more distinct
[7]
  Fruit russeting: Neither the juglone nor the plumbagin treatments resulted in observable fruit russeting

## O=C1C=CC(=O)C=C1 [Benzoquinone, 1,4-benzoquinone]
[1]; 0.01 mM, apple blossoms
  phyotoxic: no
[1]; 0.01 mM, curative
  Degree of efficacy (%): 33%
  Infestation (%): 57%
  Infested blossoms: 8
[1]; 0.05 mM, apple blossoms
  phyotoxic: yes
[1]; 0.05 mM, curative
  Degree of efficacy (%): 42%
  Infestation (%): 50%
  Infested blossoms: 7
